20 molecules from patent US12595253B2, “Benzamides of pyrazolylamino-pyrimidinyl derivatives, and compositions and methods thereof” (LYNK PHARMACEUTICALS CO. LTD., priority 2019, dated 2026) can be followed below.

Format in all cases: biochemical
For one experiment, the target named is T1, JAK2V617F (Homo sapiens, UniProt O60674, V617F).
T1 construct: purchased Carna Biosciences
As to the kind of experiment: JAK2V617F microfluidic kinase assay (Caliper EZ Reader II, FAM labeled peptide substrate). Conditions: JAK2V617F 2.5 nM, 1 mM ATP. How it is done:
(§1) Compounds were tested against JAK1, JAK2, JAK2V617F and TYK2. Assay Formats: JAK activity was determined in the reaction buffer 50 mM HEPES, 0.01% Brij35, 10 mM MgCl2, 2 mM DTT by a microfluidic assay. The phosphorylation of a FAM labeled peptide substrate was monitored in the Caliper EZ Reader II (Perkin Elmer). The assay condition for each batch of enzyme (Carna Biosciences) was optimized to obtain 10% conversion rate of peptide substrate. The test compounds were dissolved in DMSO to a stock concentration of 10 mM. 3-fold serially diluted compounds with top concentration of 5 μM were pre-incubated with JAK1, JAK2, JAK2V617F or TYK2 at indicated concentrations for 10 min at ambient temperature. The final DMSO concentration of assay mixture was 1%. […] The reaction was stopped by adding 50 mM EDTA. […] The percent inhibition was calculated by the following formula. % Inhibition=(Conversionmax−Conversionsample)/(Conversionmax−Conversionmin)*100 • Conversionmax means the conversion rate in the positive well without addition of compound • Conversionmin means the conversion rate in the well without addition of enzyme • Conversionsample means the conversion rate of test compounds The dose-response (percent inhibition) curve was plotted and IC50 values were determined by GraphPad software.

A further experiment concerns the target T2, JAK2 (Homo sapiens, UniProt O60674).
T2 construct: purchased Carna Biosciences
In words: JAK2 microfluidic kinase assay (Caliper EZ Reader II, FAM labeled peptide substrate). How it is done:
as §1

The next experiment addresses T3, JAK1 (Homo sapiens, UniProt P23458).
T3 construct: purchased Carna Biosciences
As to the kind of experiment: JAK1 microfluidic kinase assay (Caliper EZ Reader II, FAM labeled peptide substrate). Conditions: IC50 JAK1 (5 nM) (1 m MATP), JAK1 5 nM, 1 mM ATP. How it is done: as §1

T1 sequence (O60674 whole entry V617F): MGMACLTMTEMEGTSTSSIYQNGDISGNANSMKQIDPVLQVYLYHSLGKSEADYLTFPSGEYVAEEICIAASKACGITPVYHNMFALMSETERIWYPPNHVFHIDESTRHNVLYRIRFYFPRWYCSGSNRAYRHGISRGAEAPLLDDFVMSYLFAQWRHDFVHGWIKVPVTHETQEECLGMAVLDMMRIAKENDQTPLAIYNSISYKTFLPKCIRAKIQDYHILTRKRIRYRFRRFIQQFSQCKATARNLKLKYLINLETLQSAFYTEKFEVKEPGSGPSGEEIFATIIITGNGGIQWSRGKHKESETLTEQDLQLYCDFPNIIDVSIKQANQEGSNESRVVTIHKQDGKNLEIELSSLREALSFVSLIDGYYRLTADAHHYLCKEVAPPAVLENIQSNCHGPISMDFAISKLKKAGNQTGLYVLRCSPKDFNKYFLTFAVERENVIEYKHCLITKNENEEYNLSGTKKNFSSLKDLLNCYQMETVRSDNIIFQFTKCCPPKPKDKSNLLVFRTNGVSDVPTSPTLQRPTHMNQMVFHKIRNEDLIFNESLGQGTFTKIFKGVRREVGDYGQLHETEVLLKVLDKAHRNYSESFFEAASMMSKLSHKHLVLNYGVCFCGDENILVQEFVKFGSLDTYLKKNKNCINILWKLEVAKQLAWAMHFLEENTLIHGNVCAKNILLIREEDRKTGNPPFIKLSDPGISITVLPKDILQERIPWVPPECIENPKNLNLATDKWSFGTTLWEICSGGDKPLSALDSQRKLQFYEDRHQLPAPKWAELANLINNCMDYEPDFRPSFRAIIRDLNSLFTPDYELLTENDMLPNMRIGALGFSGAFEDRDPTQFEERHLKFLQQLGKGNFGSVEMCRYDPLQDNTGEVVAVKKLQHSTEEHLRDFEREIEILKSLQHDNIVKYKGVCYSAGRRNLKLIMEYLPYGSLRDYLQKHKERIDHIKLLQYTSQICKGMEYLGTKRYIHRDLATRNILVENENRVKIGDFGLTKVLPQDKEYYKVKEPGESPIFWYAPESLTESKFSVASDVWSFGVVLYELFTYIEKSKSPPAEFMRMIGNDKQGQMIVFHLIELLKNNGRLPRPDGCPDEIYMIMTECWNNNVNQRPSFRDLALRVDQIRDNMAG
T3 sequence (P23458 whole entry): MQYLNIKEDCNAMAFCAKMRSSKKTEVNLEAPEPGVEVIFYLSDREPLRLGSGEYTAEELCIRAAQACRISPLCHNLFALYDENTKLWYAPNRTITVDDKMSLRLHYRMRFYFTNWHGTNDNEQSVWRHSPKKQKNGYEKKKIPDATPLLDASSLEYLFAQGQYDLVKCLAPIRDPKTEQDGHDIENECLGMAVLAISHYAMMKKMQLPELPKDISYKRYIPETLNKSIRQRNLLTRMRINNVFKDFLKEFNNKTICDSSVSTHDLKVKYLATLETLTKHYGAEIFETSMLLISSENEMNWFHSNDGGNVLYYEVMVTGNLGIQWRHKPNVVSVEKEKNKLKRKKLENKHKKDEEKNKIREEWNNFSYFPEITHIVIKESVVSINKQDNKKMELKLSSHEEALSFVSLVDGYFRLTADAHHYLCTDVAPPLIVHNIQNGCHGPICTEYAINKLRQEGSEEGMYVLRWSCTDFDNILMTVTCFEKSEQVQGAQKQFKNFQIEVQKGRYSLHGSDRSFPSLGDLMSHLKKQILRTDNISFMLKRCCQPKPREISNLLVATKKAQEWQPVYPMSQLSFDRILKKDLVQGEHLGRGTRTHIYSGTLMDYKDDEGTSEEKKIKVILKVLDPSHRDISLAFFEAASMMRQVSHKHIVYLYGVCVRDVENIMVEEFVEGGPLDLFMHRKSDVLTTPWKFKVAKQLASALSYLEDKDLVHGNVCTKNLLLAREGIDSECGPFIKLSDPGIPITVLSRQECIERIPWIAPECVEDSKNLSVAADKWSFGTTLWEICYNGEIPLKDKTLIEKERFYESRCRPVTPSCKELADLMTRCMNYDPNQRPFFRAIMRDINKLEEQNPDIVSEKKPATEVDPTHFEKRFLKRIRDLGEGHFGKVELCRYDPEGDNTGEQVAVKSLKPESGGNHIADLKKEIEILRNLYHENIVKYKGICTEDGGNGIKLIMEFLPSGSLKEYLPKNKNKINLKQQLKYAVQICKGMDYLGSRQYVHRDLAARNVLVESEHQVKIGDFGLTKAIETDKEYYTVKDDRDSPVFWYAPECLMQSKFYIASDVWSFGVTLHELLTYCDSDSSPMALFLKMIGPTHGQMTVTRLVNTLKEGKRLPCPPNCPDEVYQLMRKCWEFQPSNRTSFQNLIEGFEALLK
T2 sequence (O60674 whole entry): as the sequence (O60674 whole entry V617F) above, with F617V counted along it

Turning to `Cc1cnc(Nc2cnn(CC(F)F)c2)nc1-c1ccc(C(=O)NCC#N)cc1` [Example 27, N-(Cyanomethyl)-4-(2-((1-(2,2-difluoroethyl)-1H-pyrazol-4-yl)amino)-5-methylpyrimidin-4-yl)benzamide], the IC50 against JAK2V617F was determined as 104 nM; at JAK2 (IC50 JAK2 ([…]) (1 mM ATP), 1 mM ATP), 50.2 nM; on JAK2 (IC50 JAK2 ([…]) (Km ATP), Km ATP) it was 1.97 nM.

On to `CC(C)(C)C(=O)N1CCC(n2cc(Nc3ncc(F)c(-c4ccc(C(=O)NCC#N)cc4)n3)cn2)CC1` [Example 56, N-(cyanomethyl)-4-(5-fluoro-2-((1-(1-pivaloylpiperidin-4-yl)-1H-pyrazol-4-yl)amino)pyrimidin-4-yl)benzamide], for which the concentration for half-maximal inhibition (IC50) is 52.6 nM at JAK2V617F and 167 nM on JAK1.

For the molecule `C[C@H](C#N)NC(=O)c1ccc(-c2nc(Nc3cnn(C4CCN(C)CC4)c3)ncc2F)cc1` [Example 63, (R)—N-(1-Cyanoethyl)-4-(5-fluoro-2-((1-(1-methylpiperidin-4-yl)-1H-pyrazol-4-yl)amino)pyrimidin-4-yl)benzamide], the IC50 worked out at 842 nM at JAK2V617F and 293 nM against JAK1.

With `Cc1cnc(Nc2cnn(C3CC4CCC(C3)N4C(=O)C3CC3)c2)nc1-c1ccc(C(=O)NCC#N)cc1` [Example 64, N-(cyanomethyl)-4-(2-((1-((1R,3r,5S)-8-(cyclopropanecarbonyl)-8-azabicyclo[3.2.1]octan-3-yl)-1H-pyrazol-4-yl)amino)-5-methylpyrimidin-4-yl)benzamide], the IC50 on JAK2V617F is 40.9 nM; at JAK1, 33.7 nM.

For the molecule `Cc1cnc(Nc2cnn(C3CC4CCC(C3)N4C(=O)C3(C)CC3)c2)nc1-c1ccc(C(=O)NCC#N)cc1` [Example 65, N-(cyanomethyl)-4-(5-methyl-2-((1-((1R,3r,5S)-8-(1-methylcyclopropanecarbonyl)-8-azabicyclo[3.2.1]octan-3-yl)-1H-pyrazol-4-yl)amino)pyrimidin-4-yl)benzamide], the IC50 at JAK2V617F amounted to 4.54 nM; against JAK1, 27.2 nM.

Take `Cc1cnc(Nc2cnn(C3CCCOC3)c2)nc1-c1ccc(C(=O)NCC#N)cc1` (centres unmarked) [Example 67, N-(cyanomethyl)-4-(5-methyl-2-((1-(tetrahydro-2H-pyran-3-yl)-1H-pyrazol-4-yl)amino)pyrimidin-4-yl)benzamide]: the IC50 against JAK2V617F amounted to 27 nM; at JAK1, 17 nM.

`Cc1cnc(Nc2cnn(C3C[C@H]4CC[C@@H](C3)O4)c2)nc1-c1ccc(C(=O)NCC#N)cc1` (stereo partly drawn) [Example 69, 4-(2-((1-((1R,5S)-8-oxabicyclo[3.2.1]octan-3-yl)-1H-pyrazol-4-yl)amino)-5-methylpyrimidin-4-yl)-N-(cyanomethyl)benzamide]: the IC50 at JAK2V617F was 21.9 nM; on JAK1 it was 14.3 nM.

`Cc1cnc(Nc2cnn(C3CN(C(=O)C4CC4)C3)c2)nc1-c1ccc(C(=O)N[C@@H](C)C#N)cc1` [Example 71, (S)—N-(1-cyanoethyl)-4-(2-((1-(1-(cyclopropanecarbonyl)azetidin-3-yl)-1H-pyrazol-4-yl)amino)-5-methylpyrimidin-4-yl)benzamide]: the 50% inhibitory concentration (IC50) at JAK2V617F was found to be 42.8 nM; at JAK1 it was 26 nM.

On to `Cc1cnc(Nc2cnn(C3CCOC(C)C3)c2)nc1-c1ccc(C(=O)NCC#N)cc1` (centres unmarked) [Example 72, N-(cyanomethyl)-4-(5-methyl-2-((1-(2-methyltetrahydro-2H-pyran-4-yl)-1H-pyrazol-4-yl)amino)pyrimidin-4-yl)benzamide], for which the IC50 at JAK2V617F was determined as 33.6 nM; against JAK1, 28 nM.

`Cc1cnc(Nc2cnn(C3CCN(C(=O)C4(O)CC4)CC3)c2)nc1-c1ccc(C(=O)NCC#N)cc1` [Example 74, N-(cyanomethyl)-4-(2-((1-(1-(1-hydroxycyclopropanecarbonyl)piperidin-4-yl)-1H-pyrazol-4-yl)amino)-5-methylpyrimidin-4-yl)benzamide]: the IC50 at JAK2V617F was found to be 4.18 nM; against JAK1, 14.4 nM.

Regarding `Cc1cnc(Nc2cnn(C3CCOCC3)c2)nc1-c1ccc(C(=O)NCC(F)(F)F)cc1` [Example 76, 4-(5-Methyl-2-((1-(tetrahydro-2H-pyran-4-yl)-1H-pyrazol-4-yl)amino)pyrimidin-4-yl)-N-(2,2,2-trifluoroethyl)benzamide], the IC50 was 6.93 nM against JAK2V617F and 7.47 nM against JAK1.

As to `Cc1cnc(Nc2cnn(C3CCOCC3)c2)nc1-c1ccc(C(=O)NCCC(F)(F)F)cc1` [Example 77, 4-(5-Methyl-2-((1-(tetrahydro-2H-pyran-4-yl)-1H-pyrazol-4-yl)amino)pyrimidin-4-yl)-N-(3,3,3-trifluoropropyl)benzamide], the values for the IC50 against JAK2V617F and on JAK1 were 76.3 nM and 43.5 nM, respectively.

With `Cc1cnc(Nc2cnn(C3CCC(F)(F)CC3)c2)nc1-c1ccc(C(=O)NCC#N)cc1` [Example 84, N-(cyanomethyl)-4-(2-((1-(4,4-difluorocyclohexyl)-1H-pyrazol-4-yl)amino)-5-methylpyrimidin-4-yl)benzamide], the values for the IC50 against JAK2V617F and against JAK1 were 13.2 nM and 11.1 nM, respectively.

On to `Cc1cnc(Nc2cnn(C3CCC(F)(F)CC3)c2)nc1-c1ccc(C(=O)N[C@@H](C)C#N)cc1` [Example 85, (S)—N-(1-cyanoethyl)-4-(2-((1-(4,4-difluorocyclohexyl)-1H-pyrazol-4-yl)amino)-5-methylpyrimidin-4-yl)benzamide], for which the IC50 against JAK2V617F worked out at 2.17 nM; at JAK1 it was 11.1 nM.

Take `Cc1cnc(Nc2cnn(C3CCOCC3)c2)nc1-c1ccc(C(=O)N[C@H](C)C#N)cc1` [Example 96, (R)—N-(1-cyanoethyl)-4-(5-methyl-2-((1-(tetrahydro-2H-pyran-4-yl)-1H-pyrazol-4-yl)amino)pyrimidin-4-yl)benzamide]: the IC50 came out at 84.2 nM at JAK2V617F and 51.5 nM at JAK1.

As for `N#CCNC(=O)c1ccc(-c2nc(Nc3cnn(C4CC4)c3)ncc2C(F)F)cc1` [Example 110, N-(cyanomethyl)-4-(2-((1-cyclopropyl-1H-pyrazol-4-yl)amino)-5-(difluoromethyl)pyrimidin-4-yl)benzamide], the concentration for half-maximal inhibition (IC50) against JAK2V617F came to 556 nM; against JAK1, 152 nM.

For `C[C@@H](C#N)NC(=O)c1ccc(-c2nc(Nc3cnn(C4CC4)c3)ncc2Cl)cn1` [Example 121, (S)-5-(5-chloro-2-((1-cyclopropyl-1H-pyrazol-4-yl)amino)pyrimidin-4-yl)-N-(1-cyanoethyl)picolinamide], the figures for the IC50 at JAK2V617F and on JAK1 were 245 nM and 67.4 nM, respectively.

`Cc1cnc(Nc2cnn(C3CCOCC3)c2)nc1-c1ccc(C(=O)NCC(C)(C)C#N)cc1` [Example 133, N-(2-cyano-2-methylpropyl)-4-(5-methyl-2-((1-(tetrahydro-2H-pyran-4-yl)-1H-pyrazol-4-yl)amino)pyrimidin-4-yl)benzamide]: the 50% inhibitory concentration (IC50) came to 35.1 nM at JAK2V617F and 18.9 nM on JAK1.

For the molecule `N#CCNC(=O)c1ccc(-c2nc(Nc3cnn(C4CCOCC4)c3)ncc2Cl)cc1` [Example 146, 4-(5-chloro-2-((1-(tetrahydro-2H-pyran-4-yl)-1H-pyrazol-4-yl)amino)pyrimidin-4-yl)-N-(cyanomethyl)benzamide], the IC50 against JAK2V617F is 14.1 nM; on JAK1 it was 13.5 nM.

With `Cc1cnc(Nc2cnn([C@H]3CC[C@H](C#N)CC3)c2)nc1-c1ccc(C(=O)NCC#N)cc1` [Example 147, 4-(2-((1-(Trans-4-cyanocyclohexyl)-1H-pyrazol-4-yl)amino)-5-methylpyrimidin-4-yl)-N-(cyanomethyl)benzamide], the values for the IC50 against JAK2V617F and at JAK1 were 19.9 nM and 10.8 nM, respectively.

For orientation: IC50 means the concentration at which inhibition is half-maximal. A high value points to weaker potency.
